The results in this text go back to publication PMC11013252, “Exploration of the Antibacterial and Anti-Inflammatory Activity of a Novel Antimicrobial Peptide Brevinin-1BW” (Molecules, 2024).

One may read the CC50 as the concentration that lowers cell viability or growth by half. A high value points to better tolerance by the cells.

For data set [1], the system named is S. haemolyticus (CI 1607BLD590). Nature of the data set: microbe, parasite or virus in culture. The data set is classed as cell-based, Staphylococcus haemolyticus. The following applies: CI 1607BLD590, 18 h. As to the method:
(§1) The minimum inhibitory concentration (MIC) of the Brevinin-1BW was measured in 96-well microtiter plates according to the Clinical and Laboratory Standards Institute (CLSI). The activated strains were treated with Mueller Hinton Agar (MHA) solid medium. Single colonies were picked and expanded to the logarithmic growth phase, and the solution was diluted to 2 × 10^6 CFU/mL using the McFarland turbidity standard. The MIC was determined with the two-fold dilution method. Briefly, 50 μL of Mueller Hinton (MH) medium was added to a 96-well plate in advance. Then, 50 μL of AMP solution was added to the first well, and 50 μL was pipetted into the next well after mixing using a row gun, while 50 μL was discarded from the last well. Final concentrations of Brevinin-1BW were 100, 50, 25, 12.5, 6.25, and 3.125 μg/mL. A 50 μL volume of the diluted bacterial solution was added, and the final concentration of the bacterial solution was 1 × 10^6 CFU/mL. This was then placed into a 37 °C incubator for 18 h until the next day to observe the degree of turbidity of the 96-well plate and measure the absorbance of the wells at 600 nm with a multifunctional microplate reader (SpectraMax iD5, Molecular Devices, Sunnyvale, CA, USA). The absence of turbidity and the measured concentration of absorbance being less than the opposing group was taken as the MIC. The positive control used ampicillin at the same final concentration as Brevinin-1BW, the negative control used 50 μL of MH medium mixed with 50 μL of 2 × 10^6 CFU/mL bacterial solution, and the blank contained only 100 μL of MH medium. Three replicate wells were set up for each experiment, and each experiment was repeated three times. The MIC and all concentrations above the MIC of bacterial solution coated on MHA solid medium were placed into 37 °C incubator incubation for 18 h. The lowest concentration resulting in no colony growth was taken as the minimum bactericidal concentration (MBC).

In data set [2] the test system is P. aeruginosa (ATCC27853). Nature of the data set: microbe, parasite or virus in culture. The data set is classed as cell-based, Pseudomonas aeruginosa. Particulars: ATCC27853, 18 h. As to the method: as §1
Data set [3] relates to K. pneumoniae (ATCC700603). Nature of the data set: microbe, parasite or virus in culture. The data set is classed as cell-based, Klebsiella pneumoniae. Particulars: ATCC700603, 18 h. How it is done:
as §1

A further data set concerns E. coli (MDR ATCC35218). Nature of the data set: microbe, parasite or virus in culture. The data set is classed as cell-based, Escherichia coli. Particulars: ATCC35218, 18 h. How it is done: as §1
For data set [4], the system named is S. aureus (ATCC 25923) biofilm formation. The data set is classed as cell-based, Staphylococcus aureus. The following applies: ATCC 25923, 24 h. How it is done:
The plates were washed three times with sterile PBS and fixed with methanol for 0.5 h. After drying, the cells were stained with 1% crystal violet solution for 0.5 h. They were washed three times with deionized water and dissolved in 100 µL absolute ethanol. Absorbance was measured at 600 nm. Experiments were repeated four times independently.

A further data set relates to 293T. The data set is classed as cell-based, human. Particulars: 24 h. As to the method:
(§2) Medium was prepared to contain 10% FBS (TransGen Biotech, China) and 1% penicillin-streptomycin (Biosharp, Guangzhou, China). A549, U-2OS, HePG2, HaCaT, HUVEC, and 293T cells were cultured in DMEM medium (Gibco, New York, NY, USA). A375, HCT116, Hela, and RAW264.7 cells were cultured in RPMI 1640 medium (Gibco, New York, NY, USA). The cytotoxicity of Brevinin-1BW was determined using the Cell Counting Kit-8 as follows: detached the cells from cell culture flasks with 0.25% trypsin, counted with a hemocytometer plate and then prepared into a cell suspension containing 5 × 10^3 cells/mL. Then, 90 μL of the cell suspension was inoculated into a 96-well plate and incubated at 37 °C in a 5% CO2-humidified atmosphere for 24 h. A 10 μL volume of the peptide was subsequently added to each well and co-incubated with the cells for 24 h. Then, 10 μL of CCK8 (Abbkine, Wuhan, China) was added to each well and incubated for a further 2 h. The absorbance of each well at 450 nm was measured using a multifunctional enzyme marker. […] Three replicate wells were set up for each experiment, and each experiment was repeated three times. The formula for calculating the cell viability is shown below.

In another data set the test system is A375. The data set is classed as cell-based, human. Particulars: 24 h. How it is done:
as §2

The next data set concerns A549. The data set is classed as cell-based, human. The following applies: 24 h. As to the method:
as §2

The next data set relates to HCT116. The data set is classed as cell-based, human. Particulars: 24 h. How it is done:
as §2

Another data set relates to HUVEC. The data set is classed as cell-based, human. The following applies: 24 h. How it is done:
as §2

Another data set relates to HaCaT. The data set is classed as cell-based, human. The following applies: 24 h. How it is done: as §2
The next data set relates to HePG2. The data set is classed as cell-based, human. The following applies: 24 h. How it is done:
as §2

Another data set deals with Hela. The data set is classed as cell-based, human. Particulars: 24 h. How it is done: as §2
The next data set relates to U-2OS. The data set is classed as cell-based, human. The following applies: 24 h. As to the method:
as §2

The next data set concerns IL-6. Nature of the data set: Cytokine release in LPS-treated RAW264.7 cells, ELISA. The data set is classed as cell-based, mouse. How it is done: (§3) RAW 264.7 mouse macrophages were cultured in DMEM medium (Gibco, New York, NY, USA). containing 10% FBS (TransGen Biotech, Beijing, China) and 1% penicillin-streptomycin (Biosharp, Guangzhou, China) and were seeded into 6-well plates at a cell density of 10^5 cells/mL. After cell adhesion, 1 μg/mL LPS (Solarbio, Beijing, China) and different concentrations of Brevinin-1BW (0, 1, 2, 3, and 4 μg/mL) were incubated for 24 h. Culture supernatants were collected, and the contents of TNFα, IL-6, and IL-1β were determined with enzyme-linked immunosorbent assay (BOSTER, Wuhan, China). All cells were washed twice with precooled PBS, total cellular RNA was extracted using the RNAsimple Total RNA Extraction kit (TIANGEN, Beijing, China), and total RNA concentration and purity were determined using a Thermo Fisher NanoDropOne nucleic acid protein spectrophotometer. HiScript II 1st Strand cDNA Synthesis Kit (Vazyme, Nanjing, China) synthesized cDNA, and we performed real-time PCR using Hieff® qPCR SYBR Green Master Mix (No Rox) (YEASEN, Shanghai, China). The primer sequences for Beta-actin (β-Actin), interleukins (IL-6, IL-1β), tumor necrosis factor (TNF-α), and nitric oxide synthase (iNOS) are shown in Table 6. Cells incubated without peptide and/or LPS were used as negative control. All experiments were repeated three times.

In a further data set the test system is TNF-α. The data set is described as above. The data set is classed as cell-based, mouse. As to the method:
as §3

The structures appear in SMILES notation. ≈ marks a conversion by molar mass, not a printed value. Like-named read-outs stand apart in the source and are kept apart here. Positions of bridges follow the written chain, without caps; N, C: chain ends. Residues, ends and D or L forms follow the SMILES beside them.

Turning to `CC[C@H](C)[C@@H]1NC(=O)[C@H](CCCCN)NC(=O)[C@@H](NC(=O)[C@H](Cc2ccccc2)NC(=O)[C@@H](NC(=O)[C@@H](NC(=O)[C@@H]2CCCN2C(=O)[C@H](CC(C)C)NC(=O)[C@H](Cc2ccccc2)NC(=O)[C@H](CO)NC(=O)[C@H](C)NC(=O)[C@H](C)NC(=O)[C@H](CC(C)C)NC(=O)CNC(=O)[C@H](C)NC(=O)[C@H](CC(C)C)NC(=O)[C@H](CC(C)C)NC(=O)[C@@H]2CCCN2C(=O)[C@H](CC(C)C)NC(=O)[C@@H](N)Cc2ccccc2)[C@@H](C)O)[C@@H](C)CC)CSSC[C@@H](C(=O)O)NC(=O)[C@H](CCCCN)NC(=O)[C@H](CCCNC(=N)N)NC(=O)[C@H](CO)NC1=O` [Brevinin-1BW] (H-FLPLLAGLAASFLPTIFCKISRKC-OH; disulfide 18-24), the MBC is 25 µg/mL (≈ 9.58 µM) in data set [1], above 100 µg/mL in data set [2], above 100 µg/mL in data set [3] and above 100 µg/mL in the data set on E. coli (MDR ATCC35218). Besides, the MIC in [1] was 12.5 µg/mL (≈ 4.79 µM); in data set [2], 100 µg/mL (≈ 38.3 µM); in data set [3], above 100 µg/mL; in the data set on E. coli (MDR ATCC35218) it was above 100 µg/mL. Moreover, the “inhibition of biofilm formation” value in data set [4] (0.5) is 35.76%; in data set [4] (2), 83.67%. Also, the CC50 was found to be 28.34 ± 1.08 µg/mL (≈ 10.9 µM) with 293T; 23.79 ± 0.80 µg/mL (≈ 9.12 µM) with A375; 27.64 ± 0.41 µg/mL (≈ 10.6 µM) in the data set on A549; 35.44 ± 0.47 µg/mL (≈ 13.6 µM) in the data set with HCT116; 43.62 ± 0.77 µg/mL (≈ 16.7 µM) with HUVEC; 36.84 ± 1.44 µg/mL (≈ 14.1 µM) in the data set with HaCaT. The figures for the CC50 with HePG2, with Hela and in the data set with U-2OS were 25.42 ± 0.49 µg/mL (≈ 9.75 µM), 37.62 ± 0.91 µg/mL (≈ 14.4 µM) and 39.20 ± 0.40 µg/mL (≈ 15 µM), respectively. For the same molecule, the “decrease of IL-6 release” value in the data set on IL-6 was 77.82%. Besides, the “decrease of TNF-α release” value in the data set on TNF-α was determined as 87.31%.
